Tests used:
Assay in all cases: MTT assay
Format in all cases: cell-based, human
[1] = test system: HEK-293
Procedure: (§1) Human cancer cell lines (MDA-MB-231, LNCaP, Caco-2) and a human healthy cell line (HEK-293) were obtained from the European Collection of Cell Cultures. The cells were incubated in a humidified incubator (37 °C, 5% CO2) and cultured under standard conditions in Dulbecco’s modified Eagle medium (DMEM), 10% heat-inactivated fetal bovine serum, 100 U mL^–1 penicillin, 100 U mL^–1 streptomycin, and 4 mM L-glutamine. […] A cell culture medium was used to make further dilutions, while keeping the equivalent of DMF below 0.5% of the total volume.[94] […]
(§2) 7. Cell Viability Inhibition Assay
(§3) MDA-MB-231, LNCaP, Caco-2 and HEK-293 cells (5x10^3 per well) seeded in 96-well plates to assess cell viability by the 3-[4,5-dimethylthiazol-2-yl]-2,5-diphenyltetrazolium bromide (MTT) assay for 24 h at 37°C. Then cells were treated with compound 3 at different concentrations (3-100 µM) at 100μl/well. In parallel, the traditional anticancer agent cisplatin and etoposid was used as positive controls under identical conditions. After 24, 48 and 72 h incubation, 5 mg/ml MTT solution (20 μl/well) was added and cultured for another 4 h. Then, the supernatant was discarded and dimethyl sulfoxide was added (100 μl/well). The absorbance (A) was measured spectrophotometrically at 540 nm by a Microplate Reader (SpectraMax i3x).
(§4) A graph was plotted between the concentrations of the extract versus the percent viability. The […]
(§5) calculated from graph. All assays were performed in three replicates per concentration level. 11 […]

[2] = test system: LNCaP; details: for IC50: LNCaP
Procedure: as §1, §2, §3, §4, §5

[3] = test system: MDA-MB-231
Procedure: as §1, §2, §3, §4, §5

[4] = test system: Caco-2; details: for IC50: Homo sapiens
Procedure: as §1, §2
MDA-MB-231, LNCaP, Caco-2 and HEK-293 cells (5x10^3 per well) seeded in 96-well plates to assess cell viability by the 3-[4,5-dimethylthiazol-2-yl]-2,5-diphenyltetrazolium bromide (MTT) assay for 24 h at 37°C. Then cells were treated with compound 3 at different concentrations (3-100 µM) at 100μl/well. […]
and etoposid was used as positive controls under identical conditions. After 24, 48 and 72 h incubation, 5 mg/ml MTT solution (20 μl/well) was added and cultured for another 4 h. Then, the supernatant was discarded and dimethyl sulfoxide was added (100 μl/well). The absorbance (A) was measured spectrophotometrically at 540 nm by a Microplate Reader (SpectraMax i3x).
as §4, §5

[5] = 48 h, SI = IC50 on normal cells/IC50 on cancer cells

Q: What does the source list for N.N.[Cl][Pt][Cl] [cisplatin]?
A: IC50 ([1]; HEK-293, 24 h): 18.62 ± 0.09 µM; IC50 ([1]; HEK-293, 48 h): 4.7 ± 0.01 µM; IC50 ([1]; HEK-293, 72 h): 2.43 ± 0.01 µM; IC50 ([2]; 24 h): 26.1 ± 0.58 µM; IC50 ([2]; 48 h): 25.9 ± 0.48 µM; IC50 ([2]; 72 h): 10.3 ± 0.28 µM; IC50 ([3]; MDA-MB-231, 24 h): 8.43 ± 0.01 µM; IC50 ([3]; MDA-MB-231, 48 h): 2.19 ± 0.02 µM; IC50 ([3]; MDA-MB-231, 72 h): 1.78 ± 0.01 µM

Q: For COc1cc([C@@H]2c3cc4c(cc3[C@@H](O[C@@H]3O[C@@H]5CO[C@@H](C)O[C@H]5[C@H](O)[C@H]3O)[C@H]3COC(=O)[C@H]23)OCO4)cc(OC)c1O [etoposide], which IC50 ([1]; Homo sapiens, HEK293, HEK-293, 24 h) is on record?
A: 110.3 ± 0.16 µM

Q: What about the IC50 ([1]; Homo sapiens, HEK293, HEK-293, 48 h) of the same compound?
A: 59.2 ± 0.32 µM

Q: And the IC50 ([1]; Homo sapiens, HEK293, HEK-293, 72 h)?
A: 51.62 ± 0.48 µM

Q: What about the SI HEK-293/LNCap [2, 5] of the same compound?
A: 0.95

Q: What about the IC50 ([2]; Homo sapiens, 24 h) of the same compound?
A: 81.47 ± 0.62 µM

Q: What about the IC50 ([2]; Homo sapiens, 48 h) of the same compound?
A: 62.02 ± 0.61 µM

Q: What about the IC50 ([2]; Homo sapiens, 72 h) of the same compound?
A: 20.79 ± 0.08 µM

Q: What about the SI HEK-293/MDA-MB-231 [3, 5] of the same compound?
A: 0.94

Q: What about the IC50 ([3]; Homo sapiens, MDA-MB-231, 24 h) of the same compound?
A: 85.4 ± 0.74 µM

Q: And the IC50 ([3]; Homo sapiens, MDA-MB-231, 48 h)?
A: 63.17 ± 0.05 µM

Q: And the IC50 ([3]; Homo sapiens, MDA-MB-231, 72 h)?
A: 24.3 ± 0.44 µM

Q: What about the SI HEK-293/Caco-2 [4, 5] of the same compound?
A: 1.1

Q: And the IC50 ([4]; Caco-2, 24 h)?
A: 76.27 ± 0.34 µM

Q: What about the IC50 ([4]; Caco-2, 48 h) of the same compound?
A: 53.81 ± 0.17 µM

Q: And the IC50 ([4]; Caco-2, 72 h)?
A: 17.5 ± 0.26 µM
